Test results: patent US11247976B2, “Synthetic ligands that modulate the activity of the RhlR quorum sensing receptor” (Wisconsin Alumni Research Foundation, priority 2016, dated 2022)
Entries after “also recorded” stand apart in the source; their conditions may differ. Marks after values point to notes of the source that are not given here.

Assays:
RhlR [1] = biological target: T1, RhlR (Pseudomonas aeruginosa, UniProt P54292); assay: P. aeruginosa RhlR reporter agonism assay (PAO-JP2/prhlI-LVAgfp); format: cell-based; conditions: for Emax: read-out: Maximum Activation (%)
T1 construct: expressed in transfected cells; host or cells: E. coli JLD271 (ΔsdiA) with pJN105R2 (arabinose-induced) and pSC11-rhlI*
T1 sequence (P54292 whole entry): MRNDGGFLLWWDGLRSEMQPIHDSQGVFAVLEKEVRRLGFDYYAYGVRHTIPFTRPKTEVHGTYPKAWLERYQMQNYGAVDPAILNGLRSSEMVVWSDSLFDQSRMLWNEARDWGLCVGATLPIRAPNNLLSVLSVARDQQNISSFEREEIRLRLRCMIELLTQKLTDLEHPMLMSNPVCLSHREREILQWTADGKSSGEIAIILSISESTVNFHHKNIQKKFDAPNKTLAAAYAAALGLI

LasR = biological target: T2, LasR (Pseudomonas aeruginosa, UniProt P25084); assay: Selectivity of RhlR agonism over LasR agonism (E. coli LasR reporter JLD271/pJN105L/pSC11); format: cell-based, P. aeruginosa; conditions: RhlR % activity divided by LasR % activity, > = negligible activity in LasR reporter
T2 construct: expressed in transfected cells; host or cells: E. coli JLD271 (ΔsdiA) with pJN105L and pSC11
T2 sequence (P25084 whole entry): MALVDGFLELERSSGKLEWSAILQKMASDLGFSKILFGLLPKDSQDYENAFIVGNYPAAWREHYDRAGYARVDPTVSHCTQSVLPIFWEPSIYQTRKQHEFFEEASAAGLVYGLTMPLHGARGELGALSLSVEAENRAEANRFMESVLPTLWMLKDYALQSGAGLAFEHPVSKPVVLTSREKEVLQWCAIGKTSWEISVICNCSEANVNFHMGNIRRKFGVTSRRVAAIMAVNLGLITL
Protocol: (§1) All media and reagents for bacterial culture were purchased from commercial sources. Bacteria were cultured in Luria-Bertani broth (LB) at 37° C. with shaking at 200 rpm unless otherwise noted. The bacterial reporter strains used for this study were (i) the heterologous E. coli strain JLD271 (ΔsdiA) harboring the RhlR expression plasmid pJN105R2 and the rhlI-lacZ transcriptional fusion reporter pSC11-rhlI*, (ii) the heterologous E. coli strain JLD271 (ΔsdiA) harboring the LasR expression plasmid pJN105L and the […] transcriptional fusion reporter pSC11, and (iii) the P. aeruginosa strain PAO-JP2 (ΔlasrhlI) harboring the rhlI-gfp transcriptional fusion reporter prhlI-LVAgfp. Reporter strains JLD271/pJN105R2/pSC11-rhlI* and JLD271/pJN105L/pSC11 were grown in LB containing 100 μg/mL ampicillin and 10 μg/mL gentamicin. Freezer stocks of bacterial strains were maintained at −80° C. in 1:1 LB:50% glycerol.
To evaluate the modulatory activities of library compounds on RhlR and LasR using E. coli reporters, the strains JLD271/pJN105R2/pSC11-rhlI* and JLD271/pJN105L/pSC11 were used, respectively, as previously described.^38, 51 The following modifications were used in the RhlR agonism reporter assay, non-native compounds (10 μM or 1 mM) were compared to 1 mM BHL as the positive control. Briefly, a subculture was prepared by diluting an overnight culture 1:10 with fresh media containing 100 μg/mL ampicillin and 10 μg/mL gentamicin, and was incubated until it had grown to OD600=0.45. In all assays, L-arabinose was added to a final concentration of 4 mg/mL to induce RhlR expression. For RhlR agonism assays, activities of test compounds were measured relative to 1 mM BHL (the concentration required to induce a maximal level of RhlR activity). For RhlR antagonism assays, test compounds were competed against a concentration of BHL approximately equal to its EC50 value (10 μM). Activity was measured relative to 10 μM BHL. Inhibition was calculated by subtracting 100% from the relative activity value. Thus, 0% inhibition mimics represents no competitive displacement of 10 μM BHL by a test compound. In all assays, modifications were made to the standard Miller assay protocol to accommodate the use of the chlorophenol red-β-D-galactopyranoside (CPRG) β-galactosidase substrate. After cell lysis, 150 μL of the aqueous layer was transferred from each well of a solvent-resistant 96-well microtiter plate to the wells of a new clear, flat-bottom 96-well microtiter plate. CPRG (4 mg/mL in phosphate-buffered saline) was added to each well in 25 μL volumes. Plates were incubated at 30° C. until the positive control wells developed a red color (approximately 30 min). The amount of processed CPRG substrate was assessed by measuring the absorbance of each well at 570 nm. Enzymatic activity was calculated using the following equation: adjusted Miller units=1000·Abs570/(OD600·t·V),
LasR assays were processed using the protocol for the substrate ortho-nitrophenyl-β-galactoside (ONPG) as previously described elsewhere.^53; and LasR antagonism assays were performed versus the EC50 for OdDHL (2 nM).
The selectivity of certain compounds for RhlR over LasR was measured using a LasR reporter strain (details above). Table 6 provides a comparison of selectivity of RhlR agonism over LasR agonism for exemplary compounds. Table 7 provides a comparison of selectivity of RhlR antagonism over LasR antagonism for exemplary compounds.

RhlR [2] = biological target: T1, RhlR; assay: E. coli RhlR reporter agonism assay (JLD271/pJN105R2/pSC11-rhlI*); format: cell-based, P. aeruginosa; conditions: for activation at 10 µM: compound at 10 μM, RhlR activity relative to 1 mM BHL; for Emax: read-out: Maximum Activation (%)
RhlR [3] = biological target: T1, RhlR; assay: P. aeruginosa RhlR reporter agonism assay (PAO-JP2/prhlI-LVAgfp); format: cell-based; conditions: P. aeruginosa reporter compared with E. coli reporter
Protocol: as §1
To evaluate the RhlR-modulatory activities of selected compounds in P. aeruginosa, the ΔlasIrhlI strain PAO-JP2 harboring plasmid prhlI-LVAgfp was used as previously reported.^38 Briefly, a subculture was prepared by diluting an overnight culture 1:100 in fresh LB and was grown to OD600=0.3. […] Subculture was treated with 100 nM OdDHL (to induce native expression of RhlR) by adding the appropriate amount of OdDHL stock solution in DMSO. The subculture was then dispensed ([…] aliquots) into each synthetic compound-containing well of the microtiter plate.
Plates were incubated at 37° C. for 6 h, and GFP production was monitored by using a Synergy 2 plate reader (λex=500 nm, λem=540 nm; BioTek, Winooski, Vt.) and quantified with Gen5 1.05 software (BioTek). The final OD600 for each well was measured to normalize GFP production to cell density. All synthetic compounds were tested in triplicate, and three separate trials were performed with unique cultures. Agonism dose-response analyses were performed by testing compounds over a range of concentrations with the RhlR reporter.
Library compounds J18 and J24, as well as controls BHL and S4, were evaluated for potency in the native genetic background of RhlR by using the P. aeruginosa strain PAO-JP2 (ΔlasIrhlI) harboring the RhlR reporter plasmid prhlI-LVAgfp (Table 3). Because the production of RhlR is dependent on LasR (in LB medium), all assays were performed in the presence of 100 nM OdDHL, enabling immediate transcription of RhlR via LasR activation. […] All compounds also retained similar potencies when screened in the P. aeruginosa background.

With `O=C(N[C@H]1CCCC1=O)C1CCC1` [RN12] the EC50 (RhlR [1]) was 7.35 µM, the Emax (RhlR [1]) was 96% and the “Fold selectivity of RhlR agonists over LasR agonism” value (“Fold selectivity of RhlR agonists” below) (LasR; tested concentration 1 mM) was 6.8 fold. For the same compound, the “Fold selectivity of RhlR agonists” value (LasR; tested concentration 10 μm) was >56^b fold, the EC50 (RhlR [2]) was 5.94 µM and the activation at 10 µM (RhlR [2]; E. coli reporter) was over 50%. The Emax (RhlR [2]) was 93% and the “RhlR agonist potency in words” value (RhlR [3]) was “maintained activity between the two different reporters”.

`O=C(COc1ccc(I)cc1)N[C@H]1CCSC1=O` [RN22] showed an activation at 10 µM (RhlR [2]; E. coli reporter) of 1%.

With `CC(C)CC(=O)N[C@H]1CCCC1=O` [RN36] the EC50 (RhlR [1]) was 11.2 µM, the Emax (RhlR [1]) was 96% and the “Fold selectivity of RhlR agonists” value (LasR; tested concentration 1 mM) was >84^b fold. For the same compound, the “Fold selectivity of RhlR agonists” value (LasR; tested concentration 10 μm) was 105^ fold, the EC50 (RhlR [2]) was 7.58 µM and the activation at 10 µM (RhlR [2]; E. coli reporter) was over 50%. For the same compound, the Emax (RhlR [2]) was 101% and the “RhlR agonist potency in words” value (RhlR [3]) was “not able to retain potency”.

For `CC(C)CC(=O)N[C@H]1CCSC1=O` [RN37], the EC50 (RhlR [1]) was 2.58 µM, the Emax (RhlR [1]) was 91% and the “Fold selectivity of RhlR agonists” value (LasR; tested concentration 1 mM) was 13 fold. For the same compound, the “Fold selectivity of RhlR agonists” value (LasR; tested concentration 10 μm) was >85^b fold, the EC50 (RhlR [2]) was 0.463 µM and the “RhlR agonist potency in words” value (RhlR [2]; dose-response, E. coli reporter) was “improves potency two-fold over the homoserine lactone variant; also recorded: most potent RhlR agonist found in the E. coli reporter”. The Emax (RhlR [2]) was 93% and the “RhlR agonist potency in words” value (RhlR [3]) was “not able to retain potency”.
